US20210395210A1, “INHIBITION OF BACTERIAL CHAPERONIN SYSTEMS” (THE TRUSTEES OF INDIANA UNIVERSITY, priority 2018, published 2021)
Read-outs that look alike come from different tables or passages of the source.

Tests used:
[1] = test system: Acinetobacter baumannii (ATCC 19606); assay: Bacterial proliferation assay, A. baumannii; format: cell-based
Description: (§1) Bacterial Strains: Enterococcus faecium—(Orla-Jensen) Schleifer and Kilpper-Balz strain NCTC 7171 (ATCC 19434); Drug sensitive Staphylococcus aureus—Rosenbranch strain Seattle 1945 (ATCC 25923); Methicillin resistant S. aureus (MRSA)—Rosenbach strain HPV107 (ATCC BAA-44); Klebsiella Pneumonia—(Schroeter) Trevisan strain NCTC 9633 (ATCC 13883); Acinetobacter baumannii—Bouvet and Grimont strain 2208 (ATCC 19606); Pseudomonas aeruginosa—(Schroeter) Migula strain NCTC 10332 (ATCC 10145); Enterobacter cloacae—E. cloacae, subsp. cloacae (Jordan) Hormaeche and Edwards strain CDC 442-68 (ATCC 13047).
(§2) Growth Media: All bacteria were grown in Brain Heart Infusion (BHI) broth/agar (Becton, Dickinson and Company). All liquid cultures were grown in BHI media supplemented with 25 mg/L Ca^2+ and 12.5 mg/L Mg^2+ to mimic free physiological concentrations of these cations. A 10 mg/mL Ca^2+ stock solution was prepared by dissolving 3.68 g of CaCl2.2H2O in 100 mL of deionized water, and a 10 mg/mL Mg^2+ stock solution was prepared by dissolving 8.36 g of MgCl2.6H2O in 100 mL deionized water. Both stock solutions were filter-sterilized using 0.2 μm pore size cellulose-acetate filters. 2.5 mL of the sterile 10 mg/mL Ca^2+ stock and 1.25 mL of the sterile 10 mg/mL Mg^2+ stock solutions were added per 1 L of autoclaved BHI medium to obtain 25 mg/L Ca^2+ and 12.5 mg/L Mg^2+ ions, respectively.
(§3) General Assay Protocol: Stock bacterial cultures were streaked onto BHI agar plates and grown overnight at 37° C. Fresh aliquots of broth were inoculated with single bacterial colonies and the cultures were grown overnight at 37° C. with shaking (240 rpm) in cation adjusted BHI media. The following morning, the overnight cultures were sub-cultured (1:5 dilution) into fresh aliquots of cation adjusted BHI media and grown at 37° C. for 1-2 hours with shaking. After 2 h, cultures were diluted into fresh media to achieve final OD600 readings of 0.017. Aliquots of these diluted cultures (30 μL) were added to clear, flat-bottom, 384-well polystyrene plates that were stamped with 0.5 μL of test compounds in 20 μL media. […] Plates were sealed with “Breathe Easy” oxygen permeable membranes (Diversified Biotech) and left to incubate at 37° C. without shaking (stagnant assay). OD600 nm readings were taken at either 6-8 h (S. aureus, MRSA, K. pneumonia, E. cloacae, and P. aeruginosa) or 24 h (E. faecium and A. baumannii). A second set of baseline control plates were prepared analogously, but without any bacteria added, to correct for possible compound absorbance and/or precipitation. Plates were then read at 600 nm using a Molecular Devices SpectraMax Plus384 microplate reader. […] Results presented represent the averages of EC50 values obtained from at quadriplicate (duplicate of duplicate) replicates.

[2] = test system: Enterococcus faecium (ATCC 19434); assay: Bacterial proliferation assay, E. faecium; format: cell-based
Description: as §1, §2, §3

human HSP60/10 = molecular target: T1, human HSP60/10 (Homo sapiens, UniProt P10809); assay: HSP60/10-mediated dMDH refolding assay; format: biochemical; details: human HSP60/10-dMDH refolding assay
T1 construct: octa-Histidine tag (TEV-cleavable) (N, cleaved yes); made in house; host or cells: HSP60 in E. coli Rosetta 2 (DE3); HSP10 in Rosetta 2 (DE3) pLysS
T1 sequence (P10809 27-573): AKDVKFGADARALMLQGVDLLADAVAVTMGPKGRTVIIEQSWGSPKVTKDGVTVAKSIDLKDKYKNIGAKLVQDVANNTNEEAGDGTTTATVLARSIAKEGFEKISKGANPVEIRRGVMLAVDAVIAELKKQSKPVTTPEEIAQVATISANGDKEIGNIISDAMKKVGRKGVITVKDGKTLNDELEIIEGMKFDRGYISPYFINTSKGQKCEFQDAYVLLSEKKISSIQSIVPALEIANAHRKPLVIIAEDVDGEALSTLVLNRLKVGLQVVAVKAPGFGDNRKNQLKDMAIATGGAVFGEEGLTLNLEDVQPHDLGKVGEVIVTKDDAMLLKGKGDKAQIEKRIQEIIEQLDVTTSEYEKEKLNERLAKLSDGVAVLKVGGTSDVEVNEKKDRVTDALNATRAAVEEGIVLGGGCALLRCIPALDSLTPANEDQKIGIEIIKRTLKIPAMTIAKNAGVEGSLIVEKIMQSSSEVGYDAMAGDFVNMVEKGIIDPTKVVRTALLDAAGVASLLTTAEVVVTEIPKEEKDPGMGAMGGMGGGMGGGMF
Protocol: Reagent preparation: For these assays, four primary reagent stocks were prepared: 1) GroEUES-dMDH or HSP60/10-dMDH binary complex stock; 2) ATP initiation stock; 3) EDTA quench stock; 4) MDH enzymatic assay stock. Denatured MDH (dMDH) was prepared by 2-fold dilution of MDH (5 mg/ml, soluble pig heart MDH from Roche, product #10127248001) with denaturant buffer (7 M guanidine-HCl, 200 mM Tris, pH 7.4, and 50 mM DTT). MDH was completely denatured by incubating at room temperature for 45 min. The binary complex solutions were prepared by slowly adding the dMDH stock to a stirring stock with GroEL (or HSP60) in folding buffer (50 mM Tris-HCl, pH 7.4, 50 mM KCl, 10 mM MgCl2, and 1 mM DTT), followed by addition of GroES (or HSP10). The binary complex stocks were prepared immediately prior to dispensing into the assay plates and had final protein concentrations of 83.3 nM GroEL (Mr 800 kDa) or HSP60 (Mr 400 kDa), 100 nM GroES or HSP10 (Mr 70 kDa), and 20 nM dMDH in folding buffer. For the ATP initiation stock, ATP solid was diluted into folding buffer to a final concentration of 2.5 mM. Quench solution contained 600 mM EDTA (pH 8.0). The MDH enzymatic assay stock consisted of 20 mM sodium mesoxalate and 2.4 mM NADH in reaction buffer (50 mM Tris-HCl, pH 7.4, 50 mM KCl, and 1 mM DTT).
Assay Protocol: First, 30 μL aliquots of the GroEL/ES-dMDH or HSP60/10-dMDH binary complex stocks were dispensed into clear, 384-well polystyrene plates. […] The chaperonin-mediated refolding cycles were initiated by addition of 20 μL of ATP stock (reagent concentrations during refolding cycle: 50 nM GroEL or HSP60, 60 nM GroES or HSP10, 12 nM dMDH, 1 mM ATP, and compounds of 100 μM to 46 nM, 3-fold dilution series). The refolding reactions were incubated at 37° C. […] Next, the assay was quenched by addition of 10 μL of the EDTA to final concentration of 100 mM. […] A340 nm measurements were recorded at 0.5 minutes (start point) and at successive time points until the amount of NADH consumed reached ˜90% (end point, generally between 20-35 minutes). The differences between the start and end point A340 values were used to calculate the % inhibition of the GroEL/ES or HSP60/10 machinery by the compounds. […] Results presented represent the averages of IC50 values obtained from at least quadriplicate (duplicate of duplicate) replicates.

[3] = test system: Methicillin resistant S. aureus (MRSA) (ATCC BAA-44); assay: Bacterial proliferation assay, MRSA; format: cell-based, Staphylococcus aureus
Description: as §1, §2, §3

[4] = ATCC19606, OD600 at 24 h, read-out: Bacterial Proliferation EC50 A. baumannii
[5] = ATCC19606, log of EC50 (μM scale), with standard deviation, read-out: log(EC50) Bacterial Proliferation Assay A. baumannii (converted)
[6] = ATCC19434, OD600 at 24 h, read-out: Bacterial Proliferation EC50 E. faecium
[7] = ATCC19434, log of EC50 (μM scale), with standard deviation, read-out: log(EC50) Bacterial Proliferation Assay C. faecium (converted)
[8] = read-out: HSP60/10-dMDH Refolding IC50
[9] = log(IC50) ± standard deviation, read-out: HSP60/10-dMDH Refolding Assay log(IC50) (converted)
[10] = Staphylococcus aureus, MRSA, OD600 at 6-8 h, read-out: Bacterial Proliferation EC50 S. aureus Resistant
[11] = Staphylococcus aureus, MRSA, log of EC50 (μM scale), with standard deviation, read-out: log(EC50) Bacterial Proliferation Assay S. aureus Resistant (converted)
[12] = ATCC19606, 24 h, read-out: Bacterial Proliferation EC50 A. baumannii
[13] = ATCC19606, read-out: log(EC50) Bacterial Proliferation Assay A. baumannii (converted)
[14] = ATCC19434, 24 h, read-out: Bacterial Proliferation EC50 E. faecium
[15] = ATCC19434, read-out: log(EC50) Bacterial Proliferation Assay C. faecium (converted)
[16] = Staphylococcus aureus, read-out: log(EC50) Bacterial Proliferation Assay S. aureus Resistant (converted)
[17] = Staphylococcus aureus, read-out: Bacterial Proliferation EC50 S. aureus Resistant

Structure (SMILES) | EC50 [1, 4] [µM] | EC50 [1, 5] [µM] | EC50 [2, 6] [µM] | EC50 [2, 7] [µM] | IC50 (human HSP60/10; [8]) [µM] | IC50 (human HSP60/10; [9]) [µM] | EC50 [3, 10] [µM] | EC50 [3, 11] [µM] | EC50 [1, 12] [µM] | EC50 [1, 13] [µM] | EC50 [2, 14] [µM] | EC50 [2, 15] [µM] | EC50 [3, 16] [µM] | EC50 [3, 17] [µM] | EC50 ([3]; MRSA, OD600 at 6-8 h, read-out: Bacterial Proliferation EC50 S. aureus Resistant) [µM]
CC1(C)S[C@@H]2[C@H](NC(=O)[C@H](N)c3ccccc3)C(=O)N2[C@H]1C(=O)O [Ampicillin, ampicillin, reference compound] | > 100 | > 100 | 6.9 | 6.92 | > 100 | > 100 | > 100 | > 100 |  |  |  |  |  |  | 
Cc1cc(C(C#N)c2ccc(Cl)cc2)c(Cl)cc1NC(=O)c1cc(I)cc(I)c1O (stereo not drawn) [Closantel, closantel, reference compound] |  |  |  |  |  |  |  |  | > 100 | > 100 | 1.2 | 1.23 | 0.468 |  | 
O=C(Nc1ccc(Sc2nc3ccccc3s2)c(Cl)c1)c1cc(Br)cc(Br)c1O [Compound 1, N-(4-(Benzo[d]thiazol-2-ylthio)-3-chlorophenyl)-3,5-dibromo-2-hydroxybenzamide] |  |  |  |  | 4.2 | 4.17 |  |  | 66 | 66.1 | 0.52 | 0.513 | 0.55 | 0.55 | 
O=C(Nc1ccc(Sc2nc3ccccc3s2)c(Cl)c1)c1cccc(Br)c1O [Compound 2, N-(4-(Benzo[d]thiazol-2-ylthio)-3-chlorophenyl)-3-bromo-2-hydroxybenzamide] |  |  |  |  | 6.9 | 6.92 |  |  | 2.9 | 2.88 | 24 | 23.4 | 0.708 | 0.71 | 
O=C(Nc1ccc(Sc2nc3ccccc3s2)c(Cl)c1)c1cc(Br)ccc1O [Compound 3, N-(4-(Benzo[d]thiazol-2-ylthio)-3-chlorophenyl)-5-bromo-2-hydroxybenzamide] |  |  |  |  | > 100 | > 100 |  |  | > 100 | > 100 | 15 | 14.8 | 0.17 | 0.17 | 
O=C(Nc1ccc(Sc2nc3ccccc3s2)c(Cl)c1)c1ccccc1O [Compound 4, N-(4-(Benzo[d]thiazol-2-ylthio)-3-chlorophenyl)-2-hydroxybenzamide] | > 100 | > 100 | 64 | 63.1 | > 100 | > 100 | 0.45 | 0.447 |  |  |  |  |  |  | 
O=C(Nc1ccc(Sc2nc3ccccc3s2)cc1)c1cc(Br)cc(Br)c1O [Compound 5, N-(4-(Benzo[d]thiazol-2-ylthio)phenyl)-3,5-dibromo-2-hydroxybenzamide] |  |  |  |  | 4.7 | 4.68 |  |  | > 100 | > 100 | 0.88 | 0.891 | 0.525 | 0.52 | 
O=C(Nc1ccc(Sc2nc3ccccc3s2)cc1)c1cccc(Br)c1O [Compound 6, N-(4-(Benzo[d]thiazol-2-ylthio)phenyl)-3-bromo-2-hydroxybenzamide] |  |  |  |  | 26 | 25.7 |  |  | 12 | 11.5 | 11 | 11.2 | 1.1 | 1.1 | 
O=C(Nc1ccc(Sc2nc3ccccc3s2)cc1)c1cc(Br)ccc1O [Compound 7, N-(4-(Benzo[d]thiazol-2-ylthio)phenyl)-5-bromo-2-hydroxybenzamide] |  |  |  |  | > 100 | > 100 |  |  | > 100 | > 100 | 19 | 19.5 | 0.141 | 0.14 | 
O=C(Nc1ccc(Sc2nc3ccccc3s2)cc1)c1ccccc1O [Compound 8, N-(4-(Benzo[d]thiazol-2-ylthio)phenyl)-2-hydroxybenzamide] | > 100 | > 100 | 67 | 67.6 | > 100 | > 100 | 0.41 | 0.407 |  |  |  |  |  |  | 
O=C(Nc1cccc(Cl)c1)c1cc(Br)cc(Br)c1O [Compound 9, 3,5-Dibromo-N-(3-chlorophenyl)-2-hydroxybenzamide] |  |  |  |  | 29 | 28.8 |  |  | 46 | 45.7 | 73 | 72.4 | 1.1 | 1.1 | 
O=C(Nc1cccc(Cl)c1)c1cccc(Br)c1O [Compound 10, 3-Bromo-N-(3-chlorophenyl)-2-hydroxybenzamide] | > 100 | > 100 | > 100 | > 100 | > 100 | > 100 | 2 | 2 |  |  |  |  |  |  | 
O=C(Nc1ccc(Oc2ccc(Cl)cc2)c(Cl)c1)c1cc(I)cc(I)c1O [Rafoxanide, rafoxanide, reference compound] |  |  |  |  |  |  |  |  | 31 | 30.9 | 0.99 | 1 | 0.347 |  | 0.34
